Measured values taken from US20250351832A1, “PHYTOCHEMICALS AS BIOPESTICIDES AND BIOSTIMULANTS” (KAY BEE BIO ORGANICS PVT. LTD., priority 2024, published 2025).
Like-named read-outs stand apart in the source and are kept apart here.

Experiments:
[1] = system: Spodoptera litura; details: in vivo
[2] = system: Thrips; test: whole plant or invertebrate; details: in Gossypium hirsutum, 48 h
[3] = system: Aphid; test: whole plant or invertebrate; details: 48 h
[4] = system: Thrips
[5] = system: Aphid; details: 48 h, 1 mL or g/L
[6] = system: tomato seedlings; test: Response of tomato plants, greenhouse growth (Ex. 30); assay type: in vivo; details: for CCI 5th Day / Plant Height 5th Day / Stem Girth 5th Day: 120 h; for CCI 10th Day / Plant Height 10th Day / Root Length % Increase over control / Stem Girth 10th Day: 240 h; for Plant Height % Increase over pre on 10th Day / Stem Girth % Increase over pre on 10th Day / CCI % Increase over pre on 10th Day / Root Length (cm) 10th Day: tomato seedlings, dose 1 ml/gm/lit
[7] = system: chili seedlings; test: Response of chili plants, greenhouse growth (Ex. 31); assay type: in vivo; details: for CCI 5th Day / Plant Height (cm) 5th Day: 120 h; for CCI 10th Day / Plant Height (cm) 10th Day / Root Lenght % Increase over control: 240 h; for CCI % Increase over pre on 10th Day / Plant Height % Increase over pre on 10th Day / Root Lenght (cm) 10th Day / Stem Girth % Increase over pre on 10th Day: chili seedlings, dose 1 ml/gm/lit
[8] = cited from earlier work; for Phytotonic Effect: Table 13, effect on plants, descriptive
[9] = system: Mite; details: in vivo
[10] = system: Spodoptera litura
[11] = system: Aphid
[12] = system: Mite; details: in vivo; remark: listed apart in the source
[13] = system: Thrips; details: 48 h, 1 mL or g/L
[14] = system: Alternaria alternata; test: In vitro poisoned food technique against fungus (Ex. 20); assay type: cell-based; details: […]
[15] = system: Spodoptera litura; test: whole plant or invertebrate; details: 72 h
[16] = system: Helicoverpa armigera; details: in vivo
[17] = system: Helicoverpa armigera; details: in vivo; remark: listed apart in the source
[18] = read-out: % Corrected Mortality at 48 Hrs.
[19] = read-out: % Mortality at 48 Hrs.
[20] = Table 13, descriptive, no test described
[21] = read-out: % Corrected Mortality at 72 Hrs.
[22] = read-out: % Mortality at 72 Hrs.

In the case of CC(C)=CCCC(C)=CC=O [Citral], the “% Corrected Mortality at 72 Hrs.” value [1] is reported as 50.00%, the “% Mortality at 72 Hrs.” value [1] is reported as 52.50% and the mortality at 1 mL or g/L [2, 18] is reported as 51.4%. The mortality at 1 mL or g/L [2, 19] was 57.5%, the mortality at 1 mL or g/L [3, 18] was 64.7% and the mortality at 1 mL or g/L [3, 19] was 70%. The “Total No. of dead insect at 48 Hrs.” value [4] was 57.50, the “% Corrected Mortality at 48 Hrs.” value ([4]; in vivo) was 52.78% and the “Total No. of dead insect at 48 Hrs.” value [5] was 70.00. For the same molecule, the “CCI Pre” value [6] was 11.20, the “Plant Height Pre” value [6] was 6.11 cm and the “Stem Girth Pre” value [6] was 1.35 mm. For the same molecule, the “CCI 5th Day” value [6] was 13.34, the “Plant Height 5th Day” value [6] was 7.15 cm and the “Stem Girth 5th Day” value [6] was 1.46 mm. For the same molecule, the “CCI 10th Day” value [6] was 14.25, the “Plant Height 10th Day” value [6] was 7.85 cm and the “Root Length % Increase over control” value [6] was 25.08%. For the same molecule, the “Stem Girth 10th Day” value [6] was 2.12 mm, the “Plant Height % Increase over pre on 10th Day” value (shortened to “Plant Height % Increase”) [6] was 28.48% and the “Stem Girth % Increase over pre on 10th Day” value (“Stem Girth % Increase” for short) [6] was 56.50%. The “CCI % Increase over pre on 10th Day” value [6] was 27.23%, the “Root Length (cm) 10th Day” value [6] was 4.16 cm and the “CCI Pre” value [7] was 8.60. The “Plant Height (cm) Pre” value [7] was 4.47 cm, the “CCI 5th Day” value [7] was 11.02 and the “Plant Height (cm) 5th Day” value [7] was 6.30 cm. For the same molecule, the “CCI 10th Day” value [7] was 12.02, the “Plant Height (cm) 10th Day” value [7] was 6.79 cm and the “Root Lenght % Increase over control” value [7] was 14.22%. For the same molecule, the “CCI % Increase over pre on 10th Day” value [7] was 39.77%, the “Plant Height % Increase” value [7] was 52.01% and the “Root Lenght (cm) 10th Day” value [7] was 3.13 cm. The “Stem Girth % Increase” value [7] was 38.62%, the “Acaricidal Activity - Mode of action” value [8, 20] was “Repelling and killing” and the “Antifungal Activity - Mode of action” value [8, 20] was “Inhibited the mycelial”. The “Antioxidant Activity - Mode of action” value [8, 20] was “Induced the overexpression”, the “Bactericidal Activity - Mode of action” value [8, 20] was “High mortality against” and the “Insecticidal Activities - Mode of action” value [8, 20] was “Repellent and Antifeedant”. The “Nematicidal Activity - Mode of action” value [8, 20] was “Strong Nematicidal activity”, the “Virucidal Activity - Mode of action” value [8, 20] was “Increases plant disease” and the “Phytotonic Effect” value [8] was “Trigger”. The “% Mortality at 48 Hrs.” value [9] was 55.00%, the “Total No. of dead insect at 72 Hrs.” value ([10]; 72 h, 1 mL or g/L) was 5.50 and the “Total No. of dead insect at 48 Hrs.” value [11] was 6.50. For the same molecule, the “% Corrected Mortality at 48 Hrs.” value ([11]; in vivo) was 60.00%, the “% Mortality at 48 Hrs.” value ([11]; in vivo) was 65.00% and the “% Mortality at 48 Hrs.” value [12] was 55.00%. The “Total No. of dead insect at 48 Hrs.” value [13] was 5.75, the inhibition of growth at 1 mL or g/L [14] was 48.3% and the mortality at 1 mL or g/L [15, 21] was 52.6%. It also gave a mortality at 1 mL or g/L [15, 22] of 55%.
With Cc1ccc(C(C)C)cc1 [p-Cymene] the “% Corrected Mortality at 72 Hrs.” value [1] was 68.42%, the “% Mortality at 72 Hrs.” value [1] was 70.00% and the mortality at 1 mL or g/L [2, 18] was 54.3%. For the same molecule, the mortality at 1 mL or g/L [2, 19] was 60%, the mortality at 1 mL or g/L [3, 18] was 52.9% and the mortality at 1 mL or g/L [3, 19] was 60%. For the same molecule, the “Total No. of dead insect at 48 Hrs.” value [4] was 57.50, the “% Corrected Mortality at 48 Hrs.” value ([4]; in vivo) was 52.78% and the “% Mortality at 48 Hrs.” value ([4]; in vivo) was 57.50%. The “Total No. of dead insect at 48 Hrs.” value [5] was 60.00, the “CCI Pre” value [6] was 12.58 and the “Plant Height Pre” value [6] was 6.12 cm. The “Stem Girth Pre” value [6] was 1.35 mm, the “CCI 5th Day” value [6] was 14.52 and the “Plant Height 5th Day” value [6] was 7.24 cm. For the same molecule, the “Stem Girth 5th Day” value [6] was 1.82 mm, the “CCI 10th Day” value [6] was 15.68 and the “Plant Height 10th Day” value [6] was 7.84 cm. For the same molecule, the “Root Length % Increase over control” value [6] was 21.38%, the “Stem Girth 10th Day” value [6] was 2.06 mm and the “Plant Height % Increase” value [6] was 28.10%. For the same molecule, the “Stem Girth % Increase” value [6] was 52.59%, the “CCI % Increase over pre on 10th Day” value [6] was 24.64% and the “Root Length (cm) 10th Day” value [6] was 4.04 cm. For the same molecule, the “CCI Pre” value [7] was 9.30, the “Plant Height (cm) Pre” value [7] was 4.29 cm and the “CCI 5th Day” value [7] was 11.47. For the same molecule, the “Plant Height (cm) 5th Day” value [7] was 6.13 cm, the “CCI 10th Day” value [7] was 13.48 and the “Plant Height (cm) 10th Day” value [7] was 6.48 cm. The “Root Lenght % Increase over control” value [7] was 15.10%, the “CCI % Increase over pre on 10th Day” value [7] was 44.95% and the “Plant Height % Increase” value [7] was 51.05%. For the same molecule, the “Root Lenght (cm) 10th Day” value [7] was 3.15 cm, the “Stem Girth % Increase” value [7] was 40.29% and the “Acaricidal Activity - Mode of action” value [8, 20] was “Showed mortality against”. For the same molecule, the “Bactericidal Activity - Mode of action” value [8, 20] was “Strong anti-bacterial”, the “Insecticidal Activities - Mode of action” value [8, 20] was “High mortality against” and the “Nematicidal Activity - Mode of action” value [8, 20] was “Effective in reducing”. For the same molecule, the “Phytotonic Effect” value [8] was “Trigger plant”, the “% Corrected Mortality at 72 Hrs.” value [16] was 65.00% and the “% Mortality at 72 Hrs.” value [16] was 65.00%. For the same molecule, the “% Corrected Mortality at 72 Hrs.” value [17] was 65.00%, the “% Mortality at 72 Hrs.” value [17] was 65.00% and the “Total No. of dead insect at 72 Hrs.” value ([10]; Spodoptera litura on castor leaves, dose 1 ml/gm/lit., 10 insects/treatment, 72 hrs after application) was 7.25. The “Total No. of dead insect at 48 Hrs.” value [11] was 6.00, the “% Corrected Mortality at 48 Hrs.” value ([11]; in vivo) was 54.29% and the “Total No. of dead insect at 48 Hrs.” value [13] was 6.00. For the same molecule, the inhibition of growth at 1 mL or g/L [14] was 34.1%, the mortality at 1 mL or g/L [15, 21] was 71% and the mortality at 1 mL or g/L [15, 22] was 72.5%.
